Measurements from ChEMBL document CHEMBL1144764, “A molecular modeling study of the interaction of 2'-fluoro-substituted analogues of dUMP/FdUMP with thymidylate synthase” (Bioorg Med Chem Lett, 2008).

Target: Thymidylate synthase (Homo sapiens, UniProt P04818)
Sequence (P04818 whole entry): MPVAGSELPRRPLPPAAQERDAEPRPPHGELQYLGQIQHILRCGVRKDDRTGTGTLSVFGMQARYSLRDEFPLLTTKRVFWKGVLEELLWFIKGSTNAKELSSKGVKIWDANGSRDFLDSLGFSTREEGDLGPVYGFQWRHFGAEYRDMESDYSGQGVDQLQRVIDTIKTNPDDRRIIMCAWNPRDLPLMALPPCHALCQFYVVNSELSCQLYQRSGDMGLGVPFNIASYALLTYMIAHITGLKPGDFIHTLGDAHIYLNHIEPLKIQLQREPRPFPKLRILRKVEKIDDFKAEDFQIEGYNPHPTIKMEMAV
Description: Binding affinity to human recombinant thymidylate synthase

SMILES | Ki [µM]
O=c1ccn([C@@H]2O[C@H](COP(=O)(O)O)[C@@H](O)C2(F)F)c(=O)[nH]1 | 433
O=c1ccn([C@@H]2O[C@H](COP(=O)(O)O)[C@@H](O)[C@@H]2F)c(=O)[nH]1 | 10.3
